Earlier results in article PMC3199145 (Future medicinal chemistry, 2011).

Columns and labels:
[1] = tested on: Trypanosoma cruzi
[2] = tested on: Trypanosoma cruzi; conditions: drug concentration that completely clears parasite from T. cruzi infected macrophage cells; P Doyle & J Engel. Unpublished Data
[3] = tested on: Trypanosoma brucei cathepsin B-like protease (TbCatB); conditions: read-out: IC50 TbCatB

CN1CCN(C(=O)N[C@@H](Cc2ccccc2)C(=O)N[C@H](/C=C/S(=O)(=O)c2ccccc2)CCc2ccccc2)CC1 [Compound 1, K11777]
Efficacy in vivo against T. cruzi parasites [1]: effective
MTC Trypanosoma cruzi (minimal trypanocidal concentration) [2]: 8 µM
IC50 [3]: 4 µM

C[C@@H](c1nc(-c2ccc(C#N)cc2)cs1)[C@](O)(Cn1cncn1)c1ccc(F)cc1F [Ravuconazole]
Efficacy in animal models ([1]; compared with posoconazole): more limited than posoconazole

CC[C@@H]([C@H](C)O)n1ncn(-c2ccc(N3CCN(c4ccc(OC[C@@H]5CO[C@@](Cn6cncn6)(c6ccc(F)cc6F)C5)cc4)CC3)cc2)c1=O [posaconazole]
Cure of mice with acute and chronic Chagas disease ([1]; mice): able to cure mice
